Measured values published in patent US20210205236A1, “THERAPEUTIC COMBINATIONS OF BOSWELLIA EXTRACT AND CANNABINOIDS” (priority 2018, published 2021).
Like-named read-outs stand apart in the source and are kept apart here.

What was measured:
[1] = target: T1, CB1 receptor (Homo sapiens, UniProt P21554); assay type: cell-based; conditions: for Conclusions: Is CB1R agonist effect observed? / Experiment 1 Fold change / Experiment 2 Fold change / Experiment 3 Fold change: alone or + THCA 10 μM or + THC 10 μM
T1 construct: expressed in transfected cells
T1 sequence (P21554 whole entry): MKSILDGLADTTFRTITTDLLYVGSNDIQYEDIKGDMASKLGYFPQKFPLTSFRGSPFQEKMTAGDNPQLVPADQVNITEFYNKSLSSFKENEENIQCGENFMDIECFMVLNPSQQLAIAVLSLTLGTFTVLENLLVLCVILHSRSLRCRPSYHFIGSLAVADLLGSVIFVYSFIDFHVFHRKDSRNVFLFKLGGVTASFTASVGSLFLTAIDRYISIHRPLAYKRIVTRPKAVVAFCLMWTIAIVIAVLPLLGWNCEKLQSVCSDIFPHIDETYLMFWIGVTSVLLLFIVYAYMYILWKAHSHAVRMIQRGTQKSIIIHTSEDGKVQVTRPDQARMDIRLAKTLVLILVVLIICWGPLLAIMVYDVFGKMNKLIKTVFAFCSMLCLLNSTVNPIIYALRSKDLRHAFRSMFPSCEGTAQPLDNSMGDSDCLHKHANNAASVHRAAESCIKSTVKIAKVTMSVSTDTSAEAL

[2] = target: T1, CB1 receptor; experiment: cell-based; assay type: cell-based; conditions: for Conclusions: Is CB1R antagonist effect observed? / activity at 5 µM / Experiment 1 Fold change / Experiment 2 Fold change / Experiment 3 Fold change / activity at 10 µM / activity at 25 µM / activity at 50 µM / activity at 100 µM: alone or + THCA 10 μM, CBD 1 μM or THC 10 μM; for activity at 5 µM / activity at 10 µM / activity at 25 µM / activity at 50 µM / activity at 100 µM: CP55940-induced activity = 100%; for Experiment 1 Fold change / Experiment 2 Fold change / Experiment 3 Fold change: Table 3 data re-expressed as fold change

CC(=O)O[C@@H]1CC[C@@]2(C)[C@@H](CC[C@]3(C)[C@@H]2C(=O)C=C2[C@@H]4[C@@H](C)[C@H](C)CC[C@]4(C)CC[C@]23C)[C@@]1(C)C(=O)O [AKBA, 3-O-acetyl-11-ketobeta-boswellic acid]
Conclusions: Is CB1R agonist effect observed? ([1]; AKBA 5 μM): Negative (Only treatments that the mean of three consecutive independent experiments shows a positive result: CB1R activity ≥ 2.5-fold increase or ≥ 4-fold increase are considered CB1R agonists or CB1R positive allosteric modulators)
Experiment 1 Fold change ([1]; AKBA 5 μM): 0.8 Fold change
Experiment 2 Fold change ([1]; AKBA 5 μM): 0.8 Fold change
Experiment 3 Fold change ([1]; AKBA 5 μM): 1.1 Fold change
Conclusions: Is CB1R agonist effect observed? ([1]; AKBA 10 μM): Negative (Only treatments that the mean of three consecutive independent experiments shows a positive result: CB1R activity ≥ 2.5-fold increase or ≥ 4-fold increase are considered CB1R agonists or CB1R positive allosteric modulators)
Experiment 1 Fold change ([1]; AKBA 10 μM): 1.0 Fold change
Experiment 2 Fold change ([1]; AKBA 10 μM): 1.3 Fold change
Experiment 3 Fold change ([1]; AKBA 10 μM): 0.9 Fold change
Experiment 1 Fold change ([1]; AKBA 25 μM): 1.0 Fold change
Experiment 2 Fold change ([1]; AKBA 25 μM): 1.1 Fold change
Experiment 3 Fold change ([1]; AKBA 25 μM): 0.8 Fold change
Conclusions: Is CB1R agonist effect observed? ([1]; AKBA 25 μM, cell 'Positive' wraps to 'Positive synergy'): Negative (Only treatments that the mean of three consecutive independent experiments shows a positive result: CB1R activity ≥ 2.5-fold increase or ≥ 4-fold increase are considered CB1R agonists or CB1R positive allosteric modulators)
Experiment 1 Fold change ([1]; AKBA 50 μM): 1.3 Fold change
Experiment 2 Fold change ([1]; AKBA 50 μM): 1.3 Fold change
Experiment 3 Fold change ([1]; AKBA 50 μM): 0.7 Fold change
Conclusions: Is CB1R agonist effect observed? ([1]; AKBA 50 μM, cell 'Positive' wraps to 'Positive synergy'): Negative (Only treatments that the mean of three consecutive independent experiments shows a positive result: CB1R activity ≥ 2.5-fold increase or ≥ 4-fold increase are considered CB1R agonists or CB1R positive allosteric modulators)
Experiment 1 Fold change ([1]; AKBA 100 μM): 2.5 Fold change
Experiment 2 Fold change ([1]; AKBA 100 μM): 1.1 Fold change
Experiment 3 Fold change ([1]; AKBA 100 μM): 0.7 Fold change
Conclusions: Is CB1R agonist effect observed? ([1]; AKBA 100 μM, cell 'Positive' wraps to 'Positive synergy'): Negative (Only treatments that the mean of three consecutive independent experiments shows a positive result: CB1R activity ≥ 2.5-fold increase or ≥ 4-fold increase are considered CB1R agonists or CB1R positive allosteric modulators)
CB1R agonistic activity ([1]; AKBA 5-100 μM alone or + 10 μM THCA, any tested concentration, THC alone): did not show CB1R agonistic activity
EC50 [2]: 51.7 ± 13.6 µM
Positive allosteric CB1R effect on CP-55940 activity [2]: strong positive allosteric CB1R effect
Conclusions: Is CB1R antagonist effect observed? ([2]; AKBA 5 μM, % of activity data): Negative (Only treatments that the mean of three consecutive independent experiments show a positive result (CB1R activity ≤ 50%) are considered antagonists of CB1R activity)
activity at 5 µM ([2]; AKBA 5 μM, read-out: Experiment 1 % of activity): 130%
activity at 5 µM ([2]; AKBA 5 μM, read-out: Experiment 2 % of activity): 123%
activity at 5 µM ([2]; AKBA 5 μM, read-out: Experiment 3 % of activity): 103%
Experiment 1 Fold change ([2]; AKBA 5 μM): 3.2 Fold change
Experiment 2 Fold change ([2]; AKBA 5 μM): 3.1 Fold change
Experiment 3 Fold change ([2]; AKBA 5 μM): 2.6 Fold change
Conclusions: Is CB1R antagonist effect observed? ([2]; AKBA 5 μM, positive allosteric activity, fold change data): Negative (Only treatments that the mean of three consecutive independent experiments show a positive result (CB1R activity ≥ 4-fold change) are considered positive CB1R allosteric agonists)
Conclusions: Is CB1R antagonist effect observed? ([2]; AKBA 10 μM, % of activity data): Negative (Only treatments that the mean of three consecutive independent experiments show a positive result (CB1R activity ≤ 50%) are considered antagonists of CB1R activity)
activity at 10 µM ([2]; AKBA 10 μM, read-out: Experiment 1 % of activity): 136%
activity at 10 µM ([2]; AKBA 10 μM, read-out: Experiment 2 % of activity): 114%
activity at 10 µM ([2]; AKBA 10 μM, read-out: Experiment 3 % of activity): 96.4%
Experiment 1 Fold change ([2]; AKBA 10 μM): 3.4 Fold change
Experiment 2 Fold change ([2]; AKBA 10 μM): 2.8 Fold change
Experiment 3 Fold change ([2]; AKBA 10 μM): 2.4 Fold change
Conclusions: Is CB1R antagonist effect observed? ([2]; AKBA 10 μM, positive allosteric activity, fold change data): Negative (Only treatments that the mean of three consecutive independent experiments show a positive result (CB1R activity ≥ 4-fold change) are considered positive CB1R allosteric agonists)
Conclusions: Is CB1R antagonist effect observed? ([2]; AKBA 25 μM, % of activity data): Allosterism (increase of the CB1R activity percentage (>150%) induced by CP55940)
activity at 25 µM ([2]; AKBA 25 μM, read-out: Experiment 1 % of activity): 203%
activity at 25 µM ([2]; AKBA 25 μM, read-out: Experiment 2 % of activity): 158%
activity at 25 µM ([2]; AKBA 25 μM, read-out: Experiment 3 % of activity): 128%
Experiment 1 Fold change ([2]; AKBA 25 μM): 5.1 Fold change
Experiment 2 Fold change ([2]; AKBA 25 μM): 3.9 Fold change
Experiment 3 Fold change ([2]; AKBA 25 μM): 3.2 Fold change
Conclusions: Is CB1R antagonist effect observed? ([2]; AKBA 25 μM, positive allosteric activity, fold change data): Allosterism (An increase of the fold change ≥ 4-fold indicates CB1R positive allosteric agonistic activity)
Conclusions: Is CB1R antagonist effect observed? ([2]; AKBA 50 μM, % of activity data): Allosterism (increase of the CB1R activity percentage (>150%) induced by CP55940)
activity at 50 µM ([2]; AKBA 50 μM, read-out: Experiment 1 % of activity): 500%
activity at 50 µM ([2]; AKBA 50 μM, read-out: Experiment 2 % of activity): 537%
activity at 50 µM ([2]; AKBA 50 μM, read-out: Experiment 3 % of activity): 474%
Experiment 1 Fold change ([2]; AKBA 50 μM): 12.5 Fold change
Experiment 2 Fold change ([2]; AKBA 50 μM): 13.4 Fold change
Experiment 3 Fold change ([2]; AKBA 50 μM): 11.9 Fold change
Conclusions: Is CB1R antagonist effect observed? ([2]; AKBA 50 μM, positive allosteric activity, fold change data): Allosterism (An increase of the fold change ≥ 4-fold indicates CB1R positive allosteric agonistic activity)
Conclusions: Is CB1R antagonist effect observed? ([2]; AKBA 100 μM, % of activity data): Allosterism (increase of the CB1R activity percentage (>150%) induced by CP55940)
activity at 100 µM ([2]; AKBA 100 μM, read-out: Experiment 2 % of activity): 674%
activity at 100 µM ([2]; AKBA 100 μM, read-out: Experiment 3 % of activity): 485%
Experiment 1 Fold change ([2]; AKBA 100 μM): 25.6 Fold change
Experiment 2 Fold change ([2]; AKBA 100 μM): 16.8 Fold change
Experiment 3 Fold change ([2]; AKBA 100 μM): 12.1 Fold change
Conclusions: Is CB1R antagonist effect observed? ([2]; AKBA 100 μM, positive allosteric activity, fold change data): Allosterism (An increase of the fold change ≥ 4-fold indicates CB1R positive allosteric agonistic activity)
CB1R antagonistic effect ([2]; AKBA 5-100 μM, CP55940-stimulated cells): did not show an antagonistic effect
